Publication PMC7238409, “Interactions of TiO2 Nanoparticles with Ingredients from Modern Lifestyle Products and Their Effects on Human Skin Cells” (Chemical Research in Toxicology, 2020)
Like-named read-outs stand apart in the source and are kept apart here.

Columns and labels:
[1] = system: nNHDF cells; experiment: Neutral Red Uptake (NRU) assay, lysosomal integrity; format: cell-based, human; conditions: 24 h, absence of TiO2 NPs (control)
[2] = Nanoparticle tracking analysis (NTA) of TiO2 NPs after incubation with MLP ingredients; format: physicochemical; conditions: 0.1 mg/mL TiO2 NPs + 0.1 mg/mL MLP ingredient, 60 min, diluted 1:100 in water
[3] = system: nNHDF cells; experiment: Annexin V/Propidiumiodide apoptosis/necrosis assay, flow cytometry; format: cell-based, human
[4] = system: nNHDF cells; experiment: Glutathione assay (total glutathione and GSSG, Tietze method); format: cell-based, human; conditions: 4 h, concentrations of Table 1, absence of TiO2 NPs
Procedure: Intracellular total and oxidized glutathione was determined by the earlier published Tietze method,[33] which was adapted to microtiter plates. Briefly, cells were lysed in 200 μL of 1% (w/v) sulfosalicylic acid (SSA), and 10 μL of the lysates were diluted with 90 μL of H2O and subsequently mixed with 100 μL of a reaction mixture containing 0.3 mM DTNB, 0.4 mM NADPH, 1 mM EDTA, and 1 U/mL glutathione reductase in 0.1 mM sodium phosphate buffer, pH = 7.5. The absorbance at 405 nm was continuously recorded over a time frame of 10 min. Glutathione concentrations were determined by comparing the increase in absorption of samples with the increase in absorption of standards with known concentrations. In order to determine the amount of oxidized glutathione (glutathione disulfide, GSSG), the samples were pretreated with 2-vinylpyridine (2-VP). The sample (cell lysate in SSA, 130 μL) was mixed with 5 μL of 2-VP, and the pH was subsequently adjusted to 6 using 0.2 M Tris-solution. Samples were incubated at room temperature for 60 min, and then 10 μL of the samples were assayed for glutathione, as described above.
Cellular protein contents were determined after lysis of the cells in 200 μL of 0.5 M NaOH according to the Lowry method[34] using bovine serum albumin as a standard.

[5] = system: nNHDF cells; experiment: Reactive oxygen species assay (DCFDA) with side scatter signal (SSC), flow cytometry; conditions: concentrations of Table 1, with or without 100 μg/mL TiO2 NPs; H2O2 100 μM
[6] = system: nNHDF cells; experiment: CellTiter-Blue (CTB) assay, metabolic activity; conditions: 24 h
[7] = read-out: EC50, metabolic activity, control, nNHDF cells, absence of TiO2 NPs (control)

CCCCOC(=O)c1ccc(O)cc1 [BP, butyl parabene]
EC50 [1]: 0.69 ± 0.42 mM
# of particles (TiO2 NPs detectable) [2]: 748 ± 137 × 10^6
particle diameter of TiO2 NPs, D50 [2]: 122 ± 12 nm
particle diameter of TiO2 NPs, mean [2]: 136 ± 18 nm
particle diameter of TiO2 NPs, mode [2]: 111 ± 19 nm
amount of viable cells [3]: 79.8%
quadrant number lower left (viable cells), PI / Annexin V plot [3]: 92.9
quadrant number lower right, PI / Annexin V plot [3]: 3.13
quadrant number upper left, PI / Annexin V plot [3]: 2.57
quadrant number upper right, PI / Annexin V plot [3]: 1.38

CCOC(=O)c1ccc(O)cc1 [EP, ethyl parabene]
EC50 [1]: 3.54 ± 0.86 mM
# of particles (TiO2 NPs detectable) [2]: 764 ± 92 × 10^6
particle diameter of TiO2 NPs, D50 [2]: 122 ± 2 nm
particle diameter of TiO2 NPs, mean [2]: 132 ± 5 nm
particle diameter of TiO2 NPs, mode [2]: 105 ± 8 nm
quadrant number lower left (viable cells), PI / Annexin V plot [3]: 90.0
quadrant number lower right, PI / Annexin V plot [3]: 6.57
quadrant number upper left, PI / Annexin V plot [3]: 1.97
quadrant number upper right, PI / Annexin V plot [3]: 1.47

OO [H2O2, Hydrogen peroxide, reference compound]
total cellular glutathione content [4]: lowered significantly
DCFDA signal (ROS) [5]: slight but significant increase in the DCFDA signal

O=C1C=C(O)C(=O)c2ccccc21 [HNQ, 2-hydroxy-1,4-naphtoquinone]
# of particles (TiO2 NPs detectable) [2]: 498 ± 380 × 10^6
particle diameter of TiO2 NPs, D50 [2]: 141 ± 20 nm
particle diameter of TiO2 NPs, mean [2]: 154 ± 14 nm
particle diameter of TiO2 NPs, mode [2]: 117 ± 18 nm
quadrant number lower left (viable cells), PI / Annexin V plot [3]: 89.5
quadrant number lower right, PI / Annexin V plot [3]: 4.56
quadrant number upper left, PI / Annexin V plot [3]: 3.31
quadrant number upper right, PI / Annexin V plot [3]: 2.61
DCFDA signal (ROS) [5]: decreased the amount of detectable ROS significantly

CC(C=O)Cc1ccc(C(C)(C)C)cc1 (stereo not shown) [Lilial, 3-(4-tert-butylphenyl)-2-methylpropanal]
EC50 ([1]; Homo sapiens): 0.27 ± 0.07 mM
# of particles (TiO2 NPs detectable) [2]: 552 ± 248 × 10^6
particle diameter of TiO2 NPs, D50 [2]: 127 ± 6 nm
particle diameter of TiO2 NPs, mean [2]: 136 ± 5 nm
particle diameter of TiO2 NPs, mode [2]: 117 ± 11 nm
quadrant number lower left (viable cells), PI / Annexin V plot ([3]; human, 24 h): 94.2
quadrant number lower right, PI / Annexin V plot ([3]; human, 24 h): 1.60
quadrant number upper left, PI / Annexin V plot ([3]; human, 24 h): 3.26
quadrant number upper right, PI / Annexin V plot ([3]; human, 24 h): 0.94
EC50 ([6]; Homo sapiens, read-out: EC50, metabolic activity, control): 0.23 ± 0.05 mM

COC(=O)c1ccc(O)cc1 [MP, methyl parabene]
# of particles (TiO2 NPs detectable) [2]: 927 ± 146 × 10^6
particle diameter of TiO2 NPs, D50 [2]: 122 ± 1 nm
particle diameter of TiO2 NPs, mean [2]: 131 ± 2 nm
particle diameter of TiO2 NPs, mode [2]: 106 ± 5 nm
quadrant number lower right, PI / Annexin V plot [3]: 6.31
quadrant number upper left, PI / Annexin V plot [3]: 2.69
quadrant number upper right, PI / Annexin V plot [3]: 1.42

CCCOC(=O)c1ccc(O)cc1 [PP, propyl parabene]
total cellular glutathione content [4]: significantly lower total cellular glutathione content
EC50 [1]: 1.27 ± 0.34 mM
# of particles (TiO2 NPs detectable) [2]: 612 ± 210 × 10^6
particle diameter of TiO2 NPs, D50 [2]: 119 ± 2 nm
particle diameter of TiO2 NPs, mean [2]: 126 ± 1 nm
particle diameter of TiO2 NPs, mode [2]: 103 ± 5 nm
quadrant number lower left (viable cells), PI / Annexin V plot [3]: 91.2
quadrant number lower right, PI / Annexin V plot [3]: 4.55
quadrant number upper left, PI / Annexin V plot [3]: 2.46
quadrant number upper right, PI / Annexin V plot [3]: 1.77
EC50 [6, 7]: 1.04 ± 0.02 mM

Nc1ccc(N)cc1 [PPD, para-phenylenediamine]
EC50 [1]: 1.36 ± 0.05 mM
# of particles (TiO2 NPs detectable) [2]: 1833 ± 93 × 10^6
particle diameter of TiO2 NPs, D50 [2]: 129 ± 17 nm
particle diameter of TiO2 NPs, mean [2]: 138 ± 19 nm
particle diameter of TiO2 NPs, mode [2]: 122 ± 14 nm
PI fluorescence (necrosis) compared to the control ([3]; 24 h, concentrations of Table 1, together with 100 μg/mL TiO2 NPs): significant difference in PI fluorescence
EC50 ([6]; read-out: EC50 (cytotoxicity, end point not given), nNHDF cells, discussion): ~1 mM
EC50 [6, 7]: 1.19 ± 0.17 mM
DCFDA signal (ROS) [5]: decreased the amount of detectable ROS significantly
